Assays:
blood glucose = experiment: Plasma glucose levels in Type 2 diabetic cynomolgus monkeys; assay type: in vivo; settings: one-time s.c. injection; Abextide II 165 ug/kg, albiglutide 0.9 mg/kg; compared to placebo
Experimental: (§1) The efficacy and pharmacokinetics of MEB-C3-Cys40-Extendin 4 (Abextide II) was studied in primates. Nine Type 2 diabetic cynomolgus monkeys were separated into 3 groups and each group was injected with one of albiglutide (positive control, 0.9 mg/kg), Abextide II (165 μg/kg), or a saline placebo, as a one-time subcutaneous injection. The structure of Abextide II is shown below.
(§2) Plasma glucose levels and body weight were measured, and an intravenous glucose tolerance test (IVGTT) was also performed to assess the efficacy and pharmacokinetics of the compounds.

plasma glucose = experiment: Intravenous glucose tolerance test (IVGTT) in Type 2 diabetic cynomolgus monkeys; assay type: in vivo; settings: plasma glucose at 0, 5, 15 and 30 min; 2 hours after treatment vs one week before
Experimental: as §1, §2
Intravenous glucose tolerance test was performed on all animals one week before (baseline) and 2 hours after treatment. […] The areas under curve (AUCs) of the plasma glucose level at 0, 5, 15 and 30 min were calculated to quantify IVGTT.

## Albiglutide
Blood glucose
  reduction of blood glucose level: unable to reduce blood glucose level
Plasma glucose
  IVGTT area under curve (AUC) of plasma glucose level versus baseline before treatment: significant differences were not observed
